{Cy5} = Cy5 fluorescent dye; d = 2'-deoxy (DNA); m = 2'-O-methyl
Tested on: E. Coli ATCC 25922
Assay: MIC and MBC of different treatments, Example 3
Type: cell-based
Experimental: Reference bacterial stains were purchased from ATCC. Clinical isolates of carbapenem-resistant bacteria were obtained from National Health Research Institutes (NHRI) and Tri-Service General Hospital (TSGH). MIC is defined as the lowest concentration of antibiotics required to inhibit the growth of bacteria. MBC is defined as the lowest concentration of antibiotics required to eradicate microorganisms. The MICs of CS and the CS NPs were determined using a broth microdilution method. Bacterial suspensions were adjusted to a turbidity of McFarland 0.5±0.05 and cultured overnight with different concentrations of CS or CS NPs. A control group without antimicrobial treatment was prepared as a reference. Following overnight incubation, solution turbidity was determined by visual inspection. Culture wells with no observable turbidity were further sub-cultured for MBC evaluation. Solutions from the clear wells were deposited onto an agar plate and cultured overnight to determine the MBCs.

ASOftsZ: antisense oligonucleotide of ftsZ DNA fragment; Cy5-mCmCmAmU-TG-GTT-CAA-A-mCmAmUmA, m_: 2′ O-methyl bases (antisense CCAUTGGTTCAAACAUA; sugars from the 5' end m4 d9 m4, 5' {Cy5}, backbone and methylation of C not given here)
MBC: >2 µg/mL | MIC: >2 µg/mL

Reference: patent US12569534B2, “Therapeutic nanoparticles by coacervate complexation and their use for treating bacteria” (priority 2018, dated 2026)
